Assay results reported in US20090298073A1, “Kidney Toxicity Biomarkers” (priority 2006, published 2009).

Tests used:
Type in all cases: in vivo, rat
male rats [1] = test: ELISA of urinary Tamm Horsfall protein (THP) in rats treated with kidney toxicants; conditions: urine
Protocol: (§1) The biomarkers of the present invention can be measured in blood or urine during testing of a novel therapeutic compound. […] ELISA antibody assays are used to evaluate changes in protein levels.
(§2) Antibodies were purchased or made and ELISA assays were performed to measure the levels of four Kidney Toxicity Biomarker proteins in urine. The proteins are TFF3; Tarnm Horsfall protein (THP); neutrophil gelatinase-associated lipocalin (NGAL) and albumin.

male rats [2] = test: ELISA of urinary TFF3 in rats treated with kidney toxicants; conditions: urine
Protocol: as §1, §2

male rats [3] = test: ELISA of urinary NGAL in rats treated with kidney toxicants; conditions: urine
Protocol: as §1, §2

male rats [4] = test: ELISA of urinary albumin in rats treated with kidney toxicants; conditions: urine
Protocol: as §1, §2

male rats [5] = test: Histopathologically-assessed kidney toxicity in rats
[6] = gentamicin 20 mg/Kg/Day, Day 15
[7] = gentamicin 80 mg/Kg/Day, Day 15
[8] = gentamicin 240 mg/Kg/Day, Day 3
[9] = gentamicin 240 mg/Kg/Day, Day 9
[10] = gentamicin 240 mg/Kg/Day, Day 12

Q: With Gentamicin as the substance, how does the THP (male rats [1]; gentamicin 20 mg/Kg/Day, Day 3) read?
A: 4.1 µg/mL

Q: And the THP (male rats [1]; gentamicin 20 mg/Kg/Day, Day 9)?
A: 4.5 µg/mL

Q: And the THP (male rats [1]; [6])?
A: 4.4 µg/mL

Q: And the THP (male rats [1]; gentamicin 80 mg/Kg/Day, Day 3)?
A: 3.4 µg/mL

Q: And the THP (male rats [1]; gentamicin 80 mg/Kg/Day, Day 9)?
A: 3.1 µg/mL

Q: And the THP (male rats [1]; [7])?
A: 3.9 µg/mL

Q: And the THP (male rats [1]; [8])?
A: 3.2 µg/mL

Q: And the THP (male rats [1]; [9])?
A: 1.3 µg/mL

Q: And the THP (male rats [1]; [10])?
A: 1.9 µg/mL

Q: What about the TFF3 (male rats [2]; gentamicin 20 mg/Kg/Day, Day 3) of the same substance?
A: 634 ng/mL

Q: What about the TFF3 (male rats [2]; gentamicin 20 mg/Kg/Day, Day 9) of the same substance?
A: 202 ng/mL

Q: And the TFF3 (male rats [2]; [6])?
A: 265 ng/mL

Q: And the TFF3 (male rats [2]; gentamicin 80 mg/Kg/Day, Day 3)?
A: 280 ng/mL

Q: And the TFF3 (male rats [2]; gentamicin 80 mg/Kg/Day, Day 9)?
A: 121 ng/mL

Q: And the TFF3 (male rats [2]; [7])?
A: 69 ng/mL

Q: And the TFF3 (male rats [2]; [8])?
A: 132 ng/mL

Q: And the TFF3 (male rats [2]; [9])?
A: 1.3 ng/mL

Q: And the TFF3 (male rats [2]; [10])?
A: 29 ng/mL

Q: And the NGAL (male rats [3]; gentamicin 20 mg/Kg/Day, Day 3)?
A: 14 µg/mL

Q: What about the NGAL (male rats [3]; gentamicin 20 mg/Kg/Day, Day 9) of the same substance?
A: 15 µg/mL

Q: And the NGAL (male rats [3]; [6])?
A: 15 µg/mL

Q: And the NGAL (male rats [3]; gentamicin 80 mg/Kg/Day, Day 3)?
A: 13 µg/mL

Q: What about the NGAL (male rats [3]; gentamicin 80 mg/Kg/Day, Day 9) of the same substance?
A: 14 µg/mL

Q: And the NGAL (male rats [3]; [7])?
A: 20 µg/mL

Q: And the NGAL (male rats [3]; [8])?
A: 17 µg/mL

Q: And the NGAL (male rats [3]; [9])?
A: 13 µg/mL

Q: What about the NGAL (male rats [3]; [10]) of the same substance?
A: 25 µg/mL

Q: What about the Albumin (male rats [4]; gentamicin 20 mg/Kg/Day, Day 3) of the same substance?
A: 14 µg/mL

Q: And the Albumin (male rats [4]; gentamicin 20 mg/Kg/Day, Day 9)?
A: 7 µg/mL

Q: And the Albumin (male rats [4]; [6])?
A: 13 µg/mL

Q: And the Albumin (male rats [4]; gentamicin 80 mg/Kg/Day, Day 3)?
A: 221 µg/mL

Q: And the Albumin (male rats [4]; gentamicin 80 mg/Kg/Day, Day 9)?
A: 190 µg/mL

Q: And the Albumin (male rats [4]; [7])?
A: 22 µg/mL

Q: What about the Albumin (male rats [4]; [8]) of the same substance?
A: 129 µg/mL

Q: And the Albumin (male rats [4]; [9])?
A: 534 µg/mL

Q: And the Albumin (male rats [4]; [10])?
A: 502 µg/mL

Q: And the “Histopathology Score” value (male rats [5]; [6])?
A: <1

Q: What about the “Histopathology Score” value (male rats [5]; gentamicin 80 mg/Kg/Day, Day 3) of the same substance?
A: <1

Q: And the “Histopathology Score” value (male rats [5]; [7])?
A: 2

Q: And the “Histopathology Score” value (male rats [5]; [8])?
A: <1

Q: And the “Histopathology Score” value (male rats [5]; [9])?
A: 4

Q: And the “Histopathology Score” value (male rats [5]; [10])?
A: 5
